16 compounds from US20260241012A1, “1,8-NAPHTHYRIDIN-2-ONE HETEROBIFUNCTIONAL BCL6 DEGRADERS” (Treeline Biosciences, Inc., priority 2022, published 2026) can be followed below.

The target of this assay is T1, N-terminal HiBiT tagged BCL6 (Homo sapiens, UniProt P41182).
T1 construct: expressed in transfected cells; host or cells: HT1080 (ATCC CCL-121), stably transduced with lentivirus pLV-UBC-N-HiBiT-BCL6-PGK-puro
In words: HiBiT based degradation assay. The assay is classed as cell-based. As to conditions: HT1080 cells expressing N-terminal HiBiT tagged BCL6, 5 hours of incubation; for Ymin (5 hr): BCL6 degradation normalized with DMSO control; for DC50: four-parameter logistic model, read-out: EC50 (5 hr). A digest of the protocol: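 Degradation measured by luminescence from the Nano-Glo HiBiT lytic reagent (15 min, room temperature), normalized to DMSO controls and fitted to a four-parameter curve.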
(The HiBiT peptide binds its large partner to form an active luciferase.)

For the compound `CNC(=O)COc1cc2cc(Nc3nc(N4CCN(CC5CCN(c6ccc7c(C8CCC(=O)NC8=O)nn(C)c7c6)CC5)C[C@@H]4CO)ncc3Cl)cnc2n(C(C)C)c1=O` (stereo partly drawn) [Compound 151a, 2-((6-((5-chloro-2-((2R)-4-((1-(3-(2,6-dioxopiperidin-3-yl)-1-methyl-1H-indazol-6-yl)piperidin-4-yl)methyl)-2-(hydroxymethyl)piperazin-1-yl)pyrimidin-4-yl)amino)-1-isopropyl-2-oxo-1,2-dihydro-1,8-naphthyridin-3-yl)oxy)-N-methylacetamide], the “Ymin (5 hr)” value is reported as “+++ (30% ≤ Ymin < 50%)” and the DC50 was below 0.01 µM.

With `CNC(=O)COc1cc2cc(Nc3nc(N4CCN(CC5CCN(c6ccc7c(C8CCC(=O)NC8=O)nn(C)c7c6)CC5)C[C@H]4CO)ncc3Cl)cnc2n(C(C)C)c1=O` (stereo partly drawn) [Compound 151b, 2-((6-((5-chloro-2-((2S)-4-((1-(3-(2,6-dioxopiperidin-3-yl)-1-methyl-1H-indazol-6-yl)piperidin-4-yl)methyl)-2-(hydroxymethyl)piperazin-1-yl)pyrimidin-4-yl)amino)-1-isopropyl-2-oxo-1,2-dihydro-1,8-naphthyridin-3-yl)oxy)-N-methylacetamide], the “Ymin (5 hr)” value was “++ (50% ≤ Ymin < 70%)” and the DC50 was below 0.01 µM.

As to `CNC(=O)COc1cc2cc(Nc3cc(N4CCC(CN5CCN(c6cccc7c(C8CCC(=O)NC8=O)nn(C)c67)CC5)CC4)ncc3Cl)cnc2n(C(C)C)c1=O` (centres unmarked) [Compound 152, 2-((6-((5-chloro-2-(4-((4-(3-(2,6-dioxopiperidin-3-yl)-1-methyl-1H-indazol-7-yl)piperazin-1-yl)methyl)piperidin-1-yl)pyridin-4-yl)amino)-1-isopropyl-2-oxo-1,2-dihydro-1,8-naphthyridin-3-yl)oxy)-N-methylacetamide], the “Ymin (5 hr)” value is recorded as “+++ (30% ≤ Ymin < 50%)” and the DC50 lay within 0.01 to 0.1 µM.

For `CNC(=O)COc1cc2cc(Nc3nc(N4CCN(CC5CCN(c6ccc7c(C8CCC(=O)NC8=O)nn(C)c7c6)CC5)[C@@H](CO)C4)ncc3Cl)cnc2n(C(C)C)c1=O` (stereo partly drawn) [Compound 153a, 2-((6-((5-chloro-2-((3R)-4-((1-(3-(2,6-dioxopiperidin-3-yl)-1-methyl-1H-indazol-6-yl)piperidin-4-yl)methyl)-3-(hydroxymethyl)piperazin-1-yl)pyrimidin-4-yl)amino)-1-isopropyl-2-oxo-1,2-dihydro-1,8-naphthyridin-3-yl)oxy)-N-methylacetamide], the “Ymin (5 hr)” value was “+++ (30% ≤ Ymin < 50%)” and the DC50 was below 0.01 µM.

On to `CNC(=O)COc1cc2cc(Nc3nc(N4CCN(CC5CCN(c6ccc7c(C8CCC(=O)NC8=O)nn(C)c7c6)CC5)[C@H](CO)C4)ncc3Cl)cnc2n(C(C)C)c1=O` (stereo partly drawn) [Compound 153b, 2-((6-((5-chloro-2-((3S)-4-((1-(3-(2,6-dioxopiperidin-3-yl)-1-methyl-1H-indazol-6-yl)piperidin-4-yl)methyl)-3-(hydroxymethyl)piperazin-1-yl)pyrimidin-4-yl)amino)-1-isopropyl-2-oxo-1,2-dihydro-1,8-naphthyridin-3-yl)oxy)-N-methylacetamide], for which the “Ymin (5 hr)” value was “+++ (30% ≤ Ymin < 50%)” and the DC50 was below 0.01 µM.

For `CNC(=O)COc1cc2cc(Nc3nc(N4CCN(CC5CCN(c6cccc7c(C8CCC(=O)NC8=O)nn(C)c67)CC5)CC4)ncc3Cl)cnc2n(CCOC)c1=O` (centres unmarked) [Compound 154, 2-((6-((5-chloro-2-(4-((1-(3-(2,6-dioxopiperidin-3-yl)-1-methyl-1H-indazol-7-yl)piperidin-4-yl)methyl)piperazin-1-yl)pyrimidin-4-yl)amino)-1-(2-methoxyethyl)-2-oxo-1,2-dihydro-1,8-naphthyridin-3-yl)oxy)-N-methylacetamide], the “Ymin (5 hr)” value is given as “++++ (Ymin < 30%)” and the DC50 is below 0.01 µM.

In the case of `CNC(=O)COc1cc2cc(Nc3nc(N4CCN(CC5CCN(c6cccc7c(C8CCC(=O)NC8=O)nn(C)c67)CC5)C[C@H]4CO)ncc3Cl)cnc2n(C(C)C)c1=O` (stereo partly drawn) [Compound 155a, 2-((6-((5-chloro-2-((2S)-4-((1-(3-(2,6-dioxopiperidin-3-yl)-1-methyl-1H-indazol-7-yl)piperidin-4-yl)methyl)-2-(hydroxymethyl)piperazin-1-yl)pyrimidin-4-yl)amino)-1-isopropyl-2-oxo-1,2-dihydro-1,8-naphthyridin-3-yl)oxy)-N-methylacetamide], the “Ymin (5 hr)” value was “+++ (30% ≤ Ymin < 50%)” and the DC50 fell in the range of 0.01 to 0.1 µM.

As to `CNC(=O)COc1cc2cc(Nc3nc(N4CCN(CC5CCN(c6cccc7c(C8CCC(=O)NC8=O)nn(C)c67)CC5)C[C@@H]4CO)ncc3Cl)cnc2n(C(C)C)c1=O` (stereo partly drawn) [Compound 155b, 2-((6-((5-chloro-2-((2R)-4-((1-(3-(2,6-dioxopiperidin-3-yl)-1-methyl-1H-indazol-7-yl)piperidin-4-yl)methyl)-2-(hydroxymethyl)piperazin-1-yl)pyrimidin-4-yl)amino)-1-isopropyl-2-oxo-1,2-dihydro-1,8-naphthyridin-3-yl)oxy)-N-methylacetamide], the “Ymin (5 hr)” value is “++++ (Ymin < 30%)” and the DC50 was below 0.01 µM.

On to `CNC(=O)COc1cc2cc(Nc3nc(N4CCN(CC5CCN(c6cccc7c(C8CCC(=O)NC8=O)nn(C)c67)CC5)CC4)ncc3Cl)cnc2n(CC2CC2)c1=O` (centres unmarked) [Compound 157, 2-((6-((5-chloro-2-(4-((1-(3-(2,6-dioxopiperidin-3-yl)-1-methyl-1H-indazol-7-yl)piperidin-4-yl)methyl)piperazin-1-yl)pyrimidin-4-yl)amino)-1-(cyclopropylmethyl)-2-oxo-1,2-dihydro-1,8-naphthyridin-3-yl)oxy)-N-methylacetamide], for which the “Ymin (5 hr)” value is “++++ (Ymin < 30%)” and the DC50 lay within 0.01 to 0.1 µM.

On to `CNC(=O)COc1cc2cc(Nc3nc(N4CCN(C(C)(C)C5CCN(c6ccc7c(C8CCC(=O)NC8=O)nn(C)c7c6)CC5)CC4)ncc3Cl)cnc2n(C(C)C)c1=O` (centres unmarked) [Compound 158, 2-((6-((5-chloro-2-(4-(2-(1-(3-(2,6-dioxopiperidin-3-yl)-1-methyl-1H-indazol-6-yl)piperidin-4-yl)propan-2-yl)piperazin-1-yl)pyrimidin-4-yl)amino)-1-isopropyl-2-oxo-1,2-dihydro-1,8-naphthyridin-3-yl)oxy)-N-methylacetamide], for which the “Ymin (5 hr)” value was “++ (50% ≤ Ymin < 70%)” and the DC50 was below 0.01 µM.

Regarding `CNC(=O)COc1cc2cc(Nc3cc(N4CCN(CC5CCN(c6cccc7c(C8CCC(=O)NC8=O)nn(C)c67)CC5)CC4)ncc3Cl)cnc2n(C)c1=O` (centres unmarked) [Compound 160, 2-((6-((5-chloro-2-(4-((1-(3-(2,6-dioxopiperidin-3-yl)-1-methyl-1H-indazol-7-yl)piperidin-4-yl)methyl)piperazin-1-yl)pyridin-4-yl)amino)-1-methyl-2-oxo-1,2-dihydro-1,8-naphthyridin-3-yl)oxy)-N-methylacetamide], the “Ymin (5 hr)” value is “++++ (Ymin < 30%)” and the DC50 is below 0.01 µM.

For `CNC(=O)COc1cc2cc(Nc3nc(N4CCC(F)(CN5CCC(c6cccc7c(C8CCC(=O)NC8=O)nn(C)c67)CC5)CC4)ncc3Cl)cnc2n(C(C)C)c1=O` (centres unmarked) [Compound 161, 2-((6-((5-chloro-2-(4-((4-(3-(2,6-dioxopiperidin-3-yl)-1-methyl-1H-indazol-7-yl)piperidin-1-yl)methyl)-4-fluoropiperidin-1-yl)pyrimidin-4-yl)amino)-1-isopropyl-2-oxo-1,2-dihydro-1,8-naphthyridin-3-yl)oxy)-N-methylacetamide], the “Ymin (5 hr)” value is given as “++++ (Ymin < 30%)” and the DC50 is 0.01 to 0.1 µM.

Turning to `CNC(=O)COc1cc2cc(Nc3nc(N4C5COCC4CN(CC4CCN(c6cccc7c(C8CCC(=O)NC8=O)nn(C)c67)CC4)C5)ncc3Cl)cnc2n(C(C)C)c1=O` (centres unmarked) [Compound 162, 2-((6-((5-chloro-2-(7-((1-(3-(2,6-dioxopiperidin-3-yl)-1-methyl-1H-indazol-7-yl)piperidin-4-yl)methyl)-3-oxa-7,9-diazabicyclo[3.3.1]nonan-9-yl)pyrimidin-4-yl)amino)-1-isopropyl-2-oxo-1,2-dihydro-1,8-naphthyridin-3-yl)oxy)-N-methylacetamide], the “Ymin (5 hr)” value is “++++ (Ymin < 30%)” and the DC50 was below 0.01 µM.

Consider `CNC(=O)COc1cc2cc(Nc3nc(N4CCN(CC5CCN(c6cccc7c(C8CCC(=O)NC8=O)nn(C)c67)CC5)[C@@H](C(F)(F)F)C4)ncc3Cl)cnc2n(C(C)C)c1=O` (stereo partly drawn) [Compound 163a, 2-[[6-[[5-chloro-2-[(3R)-4-[[1-[3-(2,6-dioxo-3-piperidyl)-1-methyl-indazol-7-yl]-4-piperidyl]methyl]-3-(trifluoromethyl)piperazin-1-yl]pyrimidin-4-yl]amino]-1-isopropyl-2-oxo-1,8-naphthyridin-3-yl]oxy]-N-methyl-acetamide], for which the “Ymin (5 hr)” value is listed as “+++ (30% ≤ Ymin < 50%)” and the DC50 was 0.1 to 1 µM.

For the compound `CNC(=O)COc1cc2cc(Nc3nc(N4CCC(Oc5ccc6c(C7CCC(=O)NC7=O)nn(C)c6c5)CC4)ncc3Cl)cnc2n(C(C)C)c1=O` (centres unmarked) [Compound 164, 2-[[6-[[5-chloro-2-[4-[3-(2,6-dioxo-3-piperidyl)-1-methyl-indazol-6-yl]oxy-1-piperidyl]pyrimidin-4-yl]amino]-1-isopropyl-2-oxo-1,8-naphthyridin-3-yl]oxy]-N-methyl-acetamide], the “Ymin (5 hr)” value is “+++ (30% ≤ Ymin < 50%)” and the DC50 is below 0.01 µM.

As to `CNC(=O)COc1cc2cc(Nc3nc(N4CCN(c5ccc6c(C7CCC(=O)NC7=O)nn(C)c6c5)CC4)ncc3Cl)cnc2n(C(C)C)c1=O` (centres unmarked) [Compound 165, 2-[[6-[[5-chloro-2-[4-[3-(2,6-dioxo-3-piperidyl)-1-methyl-indazol-6-yl]piperazin-1-yl]pyrimidin-4-yl]amino]-1-isopropyl-2-oxo-1,8-naphthyridin-3-yl]oxy]-N-methyl-acetamide], the “Ymin (5 hr)” value is recorded as “++ (50% ≤ Ymin < 70%)” and the DC50 was below 0.01 µM.
